Patent publication US9068166B2, “Use of compounds for inducing differentiation of mesenchymal stem cells to chondrocytes” (Industry-Academic Cooperation Foundation Yonsei University, priority 2010, dated 2015)

Columns and labels:
[1] = tested on: human adipose tissue-derived mesenchymal stem cells; experiment: Sandwich ELISA of aggrecan expression (chondrocyte marker) in treated mesenchymal stem cells; assay type: cell-based; conditions: for induction of differentiation of mesenchymal stem cells to chondrocytes (aggrecan expression) compared with A1942: sandwich ELISA, p<0.001 vs. control, FIG. 5
Method: (§1) 60 cc of an expanding solution (obtained by adding 30 mL of 1% lidocaine, 30 mL of 0.5% bupivacaine, 10 mL of 4.2% sodium bicarbonate and 1 mg of epinephrine to 1 L of normal water for injection) was applied to the periphery of a navel under sterile conditions. Fats were suctioned using Mercedes 3 mm×9 cm Aspiration Luer Lock Cannula (Byron Medical, Tucson, Ariz.), and then instantly kept on ice. Since a lipoaspirate filtered through a 250 mm sieve included an anesthetic and a contaminant such as blood, the lipoaspirate was washed with phosphate buffered saline (PBS) to remove the anesthetic and the contaminant. Collagenase I (1 mg/mL; Worthington Biochemical Corp., Lakewood, N.J.) was added to the obtained fat tissues, stirred, and then kept at 37° C. for an hour. The suspended adipose tissues were centrifuged at 1,500×g for 10 minutes, and a supernatant containing matured fat cells was discarded. The obtained stroma vascular (SV) cells were washed with 0.1% BSA, suspended in an M-199 medium (including 12.8% fetal bovine serum, heparin, 10,000 U/mL penicillin G, 25 mg/mL amphotericin B, and 10,000 mg/mL streptomycin), plated on a gelatin-coated tissue culture flask, and then incubated. After 24 hours, the tissue culture flask was washed to remove non-attached cells, and the incubation was continued.
[…] In this case, the mesenchymal stem cells were incubated for 11 days while replacing a medium including the compound of Formula 1 with a fresh one once every 3 days.
A capture antibody was bound to the bottom of each well, and the plate was then incubated overnight at 4° C. The plate was washed twice with PBS (Gibco), and treated with 100 μl of PBS containing 3% BSA at room temperature for 2 to 3 hours. The plate was washed twice with PBS, and a cell lysate was added to each well. Then, the plate was incubated at room temperature for 2 hours under a wet atmosphere. The plate was washed four times with PBS containing 0.02% Tween-20 (Sigma). A detector antibody was added to the plate, and the plate was then incubated at room temperature for 2 hours under a wet atmosphere. Thereafter, the plate was incubated with a peroxidase-conjugated secondary antibody at 37° C. for an hour. Finally, the plate was treated with 100 μl of a tetramethylbenzidine (TMB) solution (Sigma) as a substrate, and 25 μl of 0.1 M H2SO4 was added as a terminating buffer to stop the reaction. Immediately after the reaction, the absorbance was measured at 450 nm using an ELISA plate reader (Bio-Rad).

[2] = tested on: ERK; experiment: Western blotting of ERK phosphorylation in treated mesenchymal stem cells; assay type: cell-based, human; conditions: FIG. 3
Method: 60 cc of an expanding solution (obtained by adding 30 mL of 1% lidocaine, 30 mL of 0.5% bupivacaine, 10 mL of 4.2% sodium bicarbonate and 1 mg of epinephrine to 1 L of normal water for injection) was applied to the periphery of a navel under sterile conditions. Fats were suctioned using Mercedes 3 mm×9 cm Aspiration Luer Lock Cannula (Byron Medical, Tucson, Ariz.), and then instantly kept on ice. Since a lipoaspirate filtered through a 250 mm sieve included an anesthetic and a contaminant such as blood, the lipoaspirate was washed with phosphate buffered saline (PBS) to remove the anesthetic and the contaminant. […]
Cells were washed once with PBS, and lysed for approximately 20 minutes in a lysis buffer (Cell Signaling Technology) containing 20 mM Tris (pH 7.5), 150 mM NaCl, 1 mM Na2-EDTA, 1 mM EGTA, 1% Triton, 2.5 mM sodium pyrophosphate, 1 mM β-glycerophosphate, 1 mM Na3VO4, 1 mg/ml leupeptin and 1 mM phenylmethylsulfonyl fluoride. […] A concentration of proteins was measured using a Bradford protein assay kit (Bio-Rad). A quantitative protein was separated on a 12% sodium dodecyl sulfate-polyacrylamide gel, and transferred to a polyvinylidene difluoride membrane (Millipore). […] After thorough washing, a band was detected using an improved chemiluminogenic reagent (GE Healthcare Life Sciences). The intensity of the band was quantified using an Image J 1.40 g software (NIH).

[3] = tested on: human adipose tissue-derived mesenchymal stem cells; experiment: Alcian Blue dyeing of sulfated proteoglycan (quantified chondrogenesis); assay type: cell-based; conditions: 1 μM, 11 days, optical density at 650 nm, p<0.05 vs. control, FIG. 1
Method: as §1, with “The obtained stroma vascular (SV) cells were washed with 0.1% BSA, suspended in an M-199 medium (including 12.8% fetal bovine serum, heparin, 10,000 U/mL penicillin G, 25 mg/mL amphotericin B, and 10,000 mg/mL streptomycin), plated on a gelatin-coated tissue culture flask, and then incubated. After 24 hours, the tissue culture flask was washed to remove non-attached cells, and the incubation was continued.” left out
Cells were first washed three times with PBS (Gibco), and then immobilized with 100% methanol (Sigma) at −20° C. for 10 minutes. […] To quantify the dyeing intensity, the dyed culture plate was washed three times with PBS, and each well was extracted with 1 ml of 6 M guanidine-HCl (Sigma) overnight at room temperature. The optical density of the extracted dye was measured at 650 nm.

[4] = tested on: fibronectin, α5-integrin, N-cadherin; experiment: Semi-quantitative RT-PCR of fibronectin, integrin α5β1 and N-cadherin in treated mesenchymal stem cells; assay type: cell-based, human; conditions: 1 μM for 11 days, normalized to GAPDH, FIG. 4
Method: as §1
When the mesenchymal stem cells were subcultured twice, the mesenchymal stem cells were seeded at a density of 2×10^5 cells/ml in a 60 mm plate containing the same medium as described above, and treated with the compound of Formula 1 (each of the compounds of Examples 1 to 28) at a final concentration of 10 nM, 100 nM, 1 μM, or 10 μM. In this case, the mesenchymal stem cells were incubated for 11 days while replacing a medium including the compound of Formula 1 with a fresh one once every 3 days.
Expression levels of various genes were analyzed through an RT-PCR method. Total RNA was obtained using an Ultraspect™-II RNA system (Biotecx Laboratories, Inc., USA) and an easy-BLUE™ kit (Intron Biotechnology, Seoul, South Korea). […]

In the case of `N#CC(=C(/N)Sc1ccccc1N)/C(C#N)=C(\N)Sc1ccccc1N` [Compound U0126, reference compound], the “expression level of aggrecan, co-treatment with A1942” value ([1]; mesenchymal stem cells treated with 1 μM A1942 + U0126, FIG. 2) was “reduced an expression level of the aggrecan” and the “phosphorylation level of ERK, group treated with A1942 and U0126” value ([2]; A1942 1 μM plus U0126, 11 days) was “did not increase with time”.

In the case of `Cc1ccc(S(=O)(=O)Nc2ccc(O)c3ccccc23)cc1` [Compound A1950, N-(4-hydroxy-naphthalen-1-yl)-4-methyl-benzenesulfonamide], the “induction of differentiation of mesenchymal stem cells to chondrocytes (aggrecan expression) compared with A1942” value (“induction of differentiation … with A1942” for short) [1] was “at a level similar to the A1942 compound”.

With `O=S(=O)(Nc1cccc2c(O)cccc12)c1ccc(-c2ccccc2)cc1` [Compound A1949, Biphenyl-4-sulfonic acid (5-hydroxy-naphthalen-1-yl)-amide] the “induction of differentiation … with A1942” value [1] was “at a level similar to the A1942 compound”.

For `O=S(=O)(Nc1ccc(O)cc1)c1cccc2cccnc12` [Compound A1942, Quinoline-8-sulfonic acid (4-hydroxy-phenyl)-amide], the “expression level of aggrecan” value ([1]; 0.1, 0.5 and 1 μM for 11 days, FIG. 2) was “increased in a dose-dependent manner”, the “relative absorbance (Alcian Blue) versus control” value [3] was “approximately 3 times” and the “phosphorylation level of ERK” value ([2]; 1 μM for 11 days) was “increased with time”. For the same molecule, the “expression level of N-cadherin” value [4] was “decreased with time”, the “expression level of fibronectin” value [4] was “decreased with time” and the “expression level of α5-integrin” value [4] was “decreased with time”.

For `O=S(=O)(Nc1cccc2ccc(O)cc12)c1cccc2cccnc12` [Compound A1943, Quinoline-8-sulfonic acid (7-hydroxy-naphthalen-1-yl)-amide], the “induction of differentiation … with A1942” value [1] was “at a level similar to the A1942 compound”.

`CC(C)(C)c1ccc(S(=O)(=O)Nc2ccc(O)c(C(=O)O)c2)cc1` [Compound A1948, 5-(4-Tert-butyl-benzenesulfonyl-amino)-2-hydroxy-benzoic acid] was tested, and the “induction of differentiation … with A1942” value [1] was “at a level similar to the A1942 compound”.

In the case of `O=C(O)c1cc(NS(=O)(=O)c2cccc3cccnc23)ccc1O` [Compound A1944, 2-Hydroxy-5-(quinoline-8-sulfonylamino)-benzoic acid], the “induction of differentiation … with A1942” value [1] was “at a level similar to the A1942 compound”.
